The record followed here is patent US20230203098A1, “HUMAN TRANSFERRIN RECEPTOR BINDING PEPTIDE” (priority 2020, published 2023).

Where a SMILES comes first, the peptide text is derived from it. Bridges are numbered along the chain shown (N, C = ends). [ ]: non-standard residue; d: D form. ξ: configuration not given here. NMePhe(3-Cl) = CN[C@@H](Cc1cccc(Cl)c1)C(=O)O; NMeW = CN[C@@H](Cc1c[nH]c2ccccc12)C(=O)O; NMeY = CN[C@@H](Cc1ccc(O)cc1)C(=O)O; PEG4 = NCCOCCOCCOCCOCCC(=O)O; ξαMeK = CC(N)(CCCCN)C(=O)O

Chain of transferrin receptor (hTfR) (P02786 whole entry): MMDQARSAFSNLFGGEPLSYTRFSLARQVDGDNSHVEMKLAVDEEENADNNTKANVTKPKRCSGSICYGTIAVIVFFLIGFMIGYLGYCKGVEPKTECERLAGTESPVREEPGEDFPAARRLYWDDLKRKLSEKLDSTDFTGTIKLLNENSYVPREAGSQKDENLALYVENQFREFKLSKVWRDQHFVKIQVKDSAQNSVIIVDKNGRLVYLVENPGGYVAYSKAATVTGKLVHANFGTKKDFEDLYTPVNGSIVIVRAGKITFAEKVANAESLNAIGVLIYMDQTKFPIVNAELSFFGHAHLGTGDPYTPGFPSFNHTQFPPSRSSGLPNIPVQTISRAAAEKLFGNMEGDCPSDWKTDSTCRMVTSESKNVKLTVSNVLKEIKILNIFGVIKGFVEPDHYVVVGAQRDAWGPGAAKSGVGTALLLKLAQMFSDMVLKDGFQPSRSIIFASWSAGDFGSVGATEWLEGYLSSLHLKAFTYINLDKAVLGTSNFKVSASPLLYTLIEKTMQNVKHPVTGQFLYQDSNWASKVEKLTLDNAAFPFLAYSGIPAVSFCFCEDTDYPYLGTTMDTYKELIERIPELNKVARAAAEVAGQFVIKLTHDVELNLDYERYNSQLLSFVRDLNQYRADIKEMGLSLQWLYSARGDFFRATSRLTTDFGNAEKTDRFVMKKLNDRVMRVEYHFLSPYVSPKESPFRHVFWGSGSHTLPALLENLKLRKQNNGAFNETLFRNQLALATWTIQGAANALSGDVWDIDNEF

The experiment addresses transferrin receptor (hTfR) (Homo sapiens, UniProt P02786). As to the kind of experiment: Intermolecular interaction evaluation test between transferrin receptor (hTfR) and peptide by surface plasmon resonance (SPR). In kind it is binding. The following applies: surface plasmon resonance, hTfR; read-out: KD value for hTfR by SPR (class symbol). The gist of the method:
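hTfR captured on Ni-NTA chip then amine-coupled; peptides run single-cycle kinetics at 5–100 nM in 10 mM HEPES pH 8.0, 150 mM NaCl, 0.05% Tween 20, 0.1% BSA, 1.0% DMSO. KD from least-squares curve fitting of sensorgrams.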
For orientation: SPR reads the build-up and loss of mass on a sensor chip optically.
In the case of `CC[C@H](C)[C@@H]1NC(=O)[C@H](Cc2ccc(OC)cc2)NC(=O)[C@H](Cc2ccc(O)cc2)NC(=O)[C@H](CC(N)=O)NC(=O)[C@H](Cc2c[nH]c3ccccc23)N(C)C(=O)[C@H](C(C)C)NC(=O)[C@H](Cc2cccc(Cl)c2)N(C)C(=O)[C@H](C(C)C)NC(=O)[C@H](C)NC(=O)CSC[C@@H](C(N)=O)NC(=O)[C@H](Cc2ccc(O)cc2)N(C)C(=O)[C@H](Cc2ccccc2)NC(=O)[C@@H](CCCNC(=N)N)NC(=O)[C@H](CCCCN)NC(=O)[C@H]([C@@H](C)CC)NC1=O` [compound 373], the Kd lay in the range of 1 to 100 nM.

For `CC[C@H](C)[C@@H]1NC(=O)[C@H](Cc2ccc(OC)cc2)NC(=O)[C@H](Cc2ccc(O)cc2)NC(=O)[C@H](CC(N)=O)NC(=O)[C@H](Cc2c[nH]c3ccccc23)N(C)C(=O)[C@H](C(C)C)NC(=O)[C@H](Cc2cccc(Cl)c2)N(C)C(=O)[C@H](C(C)C)NC(=O)[C@H](C)NC(=O)CSC[C@@H](C(=O)NCCOCCOCCOCCOCCC(N)=O)NC(=O)[C@H](Cc2ccc(O)cc2)N(C)C(=O)[C@H](Cc2ccccc2)NC(=O)[C@@H](CCCNC(=N)N)NC(=O)[C@H](CCCCN)NC(=O)[C@H]([C@@H](C)CC)NC1=O` [compound 374] ({CH2CO}-AV[NMePhe(3-Cl)]V[NMeW]NYY(Me)IIK[dR]F[NMeY]C[PEG4]-NH2; thioether N-15), the Kd lay in the range of 1 to 100 nM.

Turning to `CC[C@H](C)[C@@H]1NC(=O)[C@H](Cc2ccc(OC)cc2)NC(=O)[C@H](Cc2ccc(O)cc2)NC(=O)[C@H](CC(N)=O)NC(=O)[C@H](Cc2c[nH]c3ccccc23)N(C)C(=O)[C@H](C(C)C)NC(=O)[C@H](Cc2cccc(Cl)c2)N(C)C(=O)[C@H](C(C)C)NC(=O)[C@H](C)NC(=O)CSC[C@@H](C(=O)NCC(=O)NCC(=O)NCC(=O)NCC(=O)N[C@@H](CO)C(=O)N[C@@H](CO)C(=O)N[C@@H](CS)C(N)=O)NC(=O)[C@H](Cc2ccc(O)cc2)N(C)C(=O)[C@H](Cc2ccccc2)NC(=O)[C@@H](CCCNC(=N)N)NC(=O)[C@H](CCCCN)NC(=O)[C@H]([C@@H](C)CC)NC1=O` [compound 376], the Kd lay within 1 to 100 nM.

Regarding `CC[C@H](C)[C@@H]1NC(=O)[C@H](Cc2ccc(OC)cc2)NC(=O)[C@H](Cc2ccc(O)cc2)NC(=O)[C@H](CC(N)=O)NC(=O)[C@H](Cc2c[nH]c3ccccc23)N(C)C(=O)[C@H](C(C)C)NC(=O)[C@H](Cc2cccc(Cl)c2)N(C)C(=O)[C@H](C(C)C)NC(=O)[C@H](C)NC(=O)CSC[C@@H](C(N)=O)NC(=O)[C@H](Cc2ccc(O)cc2)N(C)C(=O)[C@H](Cc2ccccc2)NC(=O)[C@@H](CCCNC(=N)N)NC(=O)[C@H](CCCCN)N(C)C(=O)[C@H]([C@@H](C)CC)NC1=O` [compound 377], the Kd lay in the range of 1 to 100 nM.

As for `CC[C@H](C)[C@@H]1NC(=O)[C@H](Cc2ccc(OC)cc2)NC(=O)[C@H](Cc2ccc(O)cc2)NC(=O)[C@H](CC(N)=O)NC(=O)[C@H](Cc2c[nH]c3ccccc23)N(C)C(=O)[C@H](C(C)C)NC(=O)[C@H](Cc2cccc(Cl)c2)N(C)C(=O)[C@H](C(C)C)NC(=O)[C@H](C)NC(=O)CSC[C@@H](C(N)=O)NC(=O)[C@H](Cc2ccc(O)cc2)N(C)C(=O)[C@H](Cc2ccccc2)NC(=O)[C@@H](C)NC(=O)[C@H](CCCCN)N(C)C(=O)[C@H]([C@@H](C)CC)NC1=O` [compound 378], the Kd was in the range of 100 to 1000 nM.

As for `CC[C@H](C)[C@@H]1NC(=O)[C@H](Cc2ccc(OC)cc2)NC(=O)[C@H](Cc2ccc(O)cc2)NC(=O)[C@H](CC(N)=O)NC(=O)[C@H](Cc2c[nH]c3ccccc23)N(C)C(=O)[C@H](C(C)C)NC(=O)[C@H](Cc2cccc(Cl)c2)N(C)C(=O)[C@H](C(C)C)NC(=O)[C@H](C)NC(=O)CSC[C@@H](C(N)=O)NC(=O)[C@H](Cc2ccc(O)cc2)N(C)C(=O)[C@H](Cc2ccccc2)NC(=O)[C@H](CCCNC(=N)N)NC(=O)C(C)(CCCCN)NC(=O)[C@H]([C@@H](C)CC)NC1=O` (stereo partly shown) [compound 379], the Kd lay within 1 to 100 nM.

As for `CC[C@H](C)[C@@H]1NC(=O)[C@H](Cc2ccc(OC)cc2)NC(=O)[C@H](Cc2ccc(O)cc2)NC(=O)[C@H](CC(N)=O)NC(=O)[C@H](Cc2c[nH]c3ccccc23)N(C)C(=O)[C@H](C(C)C)NC(=O)[C@H](Cc2cccc(Cl)c2)N(C)C(=O)[C@H](C(C)C)NC(=O)[C@H](C)NC(=O)CSC[C@@H](C(=O)NCCOCCOCCOCCOCCC(N)=O)NC(=O)[C@H](Cc2ccc(O)cc2)N(C)C(=O)[C@H](Cc2ccccc2)NC(=O)[C@@H](CCCNC(=N)N)NC(=O)C(C)(CCCCN)NC(=O)[C@H]([C@@H](C)CC)NC1=O` (stereo partly shown) [compound 380] ({CH2CO}-AV[NMePhe(3-Cl)]V[NMeW]NYY(Me)II[ξαMeK][dR]F[NMeY]C[PEG4]-NH2; thioether N-15), the Kd is 1 to 100 nM.

As to `CC[C@H](C)[C@@H]1NC(=O)[C@H](Cc2ccc(OC)cc2)NC(=O)[C@H](Cc2ccc(O)cc2)NC(=O)[C@H](CC(N)=O)NC(=O)[C@H](Cc2c[nH]c3ccccc23)N(C)C(=O)[C@H](C(C)C)NC(=O)[C@H](Cc2cccc(Cl)c2)N(C)C(=O)[C@H](C(C)C)NC(=O)[C@H](C)NC(=O)CSC[C@@H](C(N)=O)NC(=O)[C@H](Cc2ccc(O)cc2)N(C)C(=O)[C@H](Cc2ccccc2)NC(=O)[C@H](CCCNC(=N)N)NC(=O)[C@H](CCCNC(=N)N)N(C)C(=O)[C@H]([C@@H](C)CC)NC1=O` [compound 381], the Kd fell in the range of 1 to 100 nM.

Consider `CC[C@H](C)[C@@H]1NC(=O)[C@H](Cc2ccc(OC)cc2)NC(=O)[C@H](Cc2ccc(O)cc2)NC(=O)[C@H](CC(N)=O)NC(=O)[C@H](Cc2c[nH]c3ccccc23)N(C)C(=O)[C@H](C(C)C)NC(=O)[C@H](Cc2cccc(Cl)c2)N(C)C(=O)[C@H](C(C)C)NC(=O)[C@H](C)NC(=O)CSC[C@@H](C(N)=O)NC(=O)[C@H](Cc2ccc(O)cc2)N(C)C(=O)[C@H](Cc2ccccc2)NC(=O)[C@@H](CCCNC(=N)N)NC(=O)[C@H](CCCNC(=N)N)N(C)C(=O)[C@H]([C@@H](C)CC)NC1=O` [compound 382], for which the Kd lay within 1 to 100 nM.

For `CC[C@H](C)[C@@H]1NC(=O)[C@H](Cc2ccc(OC)cc2)NC(=O)[C@H](Cc2ccc(O)cc2)NC(=O)[C@H](CC(N)=O)NC(=O)[C@H](Cc2c[nH]c3ccccc23)N(C)C(=O)[C@H](C(C)C)NC(=O)[C@H](Cc2cccc(Cl)c2)N(C)C(=O)[C@H](C(C)C)NC(=O)[C@H](C)NC(=O)CSC[C@@H](C(N)=O)NC(=O)[C@H](Cc2ccc(O)cc2)N(C)C(=O)[C@H](Cc2ccccc2)NC(=O)[C@@H](C)NC(=O)[C@H](CCCNC(=N)N)N(C)C(=O)[C@H]([C@@H](C)CC)NC1=O` [compound 383], the Kd is 100 to 1000 nM.

Consider `CC[C@H](C)[C@@H]1NC(=O)[C@H](Cc2ccc(OC)cc2)NC(=O)[C@H](Cc2ccc(O)cc2)NC(=O)[C@H](CC(N)=O)NC(=O)[C@H](Cc2c[nH]c3ccccc23)N(C)C(=O)[C@H](C(C)C)NC(=O)[C@H](Cc2cccc(Cl)c2)N(C)C(=O)[C@H](C(C)C)NC(=O)[C@H](C)NC(=O)CSC[C@@H](C(N)=O)NC(=O)[C@H](Cc2ccc(O)cc2)N(C)C(=O)[C@H](Cc2ccccc2)NC(=O)[C@H](CCC(=O)NCCOCCOCCOCCOCCOCCOCCOCCOC)NC(=O)[C@H](CCCNC(=N)N)NC(=O)[C@H]([C@@H](C)CC)NC1=O` [compound 384], for which the Kd was under 1 nM.

`CC[C@H](C)[C@@H]1NC(=O)[C@H](Cc2ccc(OC)cc2)NC(=O)[C@H](Cc2ccc(O)cc2)NC(=O)[C@H](CC(N)=O)NC(=O)[C@H](Cc2c[nH]c3ccccc23)N(C)C(=O)[C@H](C(C)C)NC(=O)[C@H](Cc2cccc(Cl)c2)N(C)C(=O)[C@H](C(C)C)NC(=O)[C@H](C)NC(=O)CSC[C@@H](C(N)=O)NC(=O)[C@H](Cc2ccc(O)cc2)N(C)C(=O)[C@H](Cc2ccccc2)NC(=O)[C@H](CCC(=O)N[C@H](CCC(=O)O)C(=O)O)NC(=O)[C@H](CCCNC(=N)N)NC(=O)[C@H]([C@@H](C)CC)NC1=O` [compound 385]: the dissociation constant (Kd) was in the range of 1 to 100 nM.

As to `CC[C@H](C)[C@@H]1NC(=O)[C@H](Cc2ccc(OC)cc2)NC(=O)[C@H](Cc2ccc(O)cc2)NC(=O)[C@H](CC(N)=O)NC(=O)[C@H](Cc2c[nH]c3ccccc23)N(C)C(=O)[C@H](C(C)C)NC(=O)[C@H](Cc2cccc(Cl)c2)N(C)C(=O)[C@H](C(C)C)NC(=O)[C@H](C)NC(=O)CSC[C@@H](C(N)=O)NC(=O)[C@H](Cc2ccc(O)cc2)N(C)C(=O)[C@H](Cc2ccccc2)NC(=O)[C@H](CCCNC(=N)N)NC(=O)[C@H](CCCNC(=N)N)NC(=O)[C@H]([C@@H](C)CC)NC1=O` [compound 386], the equilibrium dissociation constant (Kd) lay in the range of 1 to 100 nM.

Take `CC[C@H](C)[C@@H]1NC(=O)[C@H](Cc2ccc(OC)cc2)NC(=O)[C@H](Cc2ccc(O)cc2)NC(=O)[C@H](CC(N)=O)NC(=O)[C@H](Cc2c[nH]c3ccccc23)N(C)C(=O)[C@H](C(C)C)NC(=O)[C@H](Cc2cccc(Cl)c2)N(C)C(=O)[C@H](C(C)C)NC(=O)[C@H](C)NC(=O)CSC[C@@H](C(=O)N[C@H](CCC(=O)O)C(=O)O)NC(=O)[C@H](Cc2ccc(O)cc2)N(C)C(=O)[C@H](Cc2ccccc2)NC(=O)[C@H](CCCNC(=N)N)NC(=O)[C@H](CCCNC(=N)N)NC(=O)[C@H]([C@@H](C)CC)NC1=O` [compound 387]: the Kd fell in the range of 1 to 100 nM.

On to `CC[C@H](C)[C@@H]1NC(=O)[C@H](Cc2ccc(OC)cc2)NC(=O)[C@H](Cc2ccc(O)cc2)NC(=O)[C@H](CC(N)=O)NC(=O)[C@H](Cc2c[nH]c3ccccc23)N(C)C(=O)[C@H](C(C)C)NC(=O)[C@H](Cc2cccc(Cl)c2)N(C)C(=O)[C@H](C(C)C)NC(=O)[C@H](C)NC(=O)CSC[C@@H](C(N)=O)NC(=O)[C@H](Cc2ccc(O)cc2)N(C)C(=O)[C@H](CCC(=O)NCCOCCOCCOCCOCCOCCOCCOCCOC)NC(=O)[C@@H](CCCNC(=N)N)NC(=O)[C@H](CCCNC(=N)N)NC(=O)[C@H]([C@@H](C)CC)NC1=O` [compound 389], for which the Kd is under 1 nM.

As for `CC[C@H](C)[C@@H]1NC(=O)[C@H](Cc2ccc(OC)cc2)NC(=O)[C@H](Cc2ccc(O)cc2)NC(=O)[C@H](CC(N)=O)NC(=O)[C@H](Cc2c[nH]c3ccccc23)N(C)C(=O)[C@H](C(C)C)NC(=O)[C@H](Cc2cccc(Cl)c2)N(C)C(=O)[C@H](C(C)C)NC(=O)[C@H](C)NC(=O)CSC[C@@H](C(N)=O)NC(=O)[C@H](Cc2ccc(O)cc2)N(C)C(=O)[C@H](CCC(=O)NCCCC[C@@H](NC)C(=O)O)NC(=O)[C@@H](CCCNC(=N)N)NC(=O)[C@H](CCCNC(=N)N)NC(=O)[C@H]([C@@H](C)CC)NC1=O` [compound 390], the Kd was 1 to 100 nM.

A word on the Kd: it is the equilibrium constant for the complex coming apart.
